Test results as given in paper PMC6804443 (Acta Pharmaceutica Sinica. B, 2019).

Assays:
[1] = target: T1, OATP1B3 (Homo sapiens, UniProt Q9NPD5); details: antibiotic as perpetrator, salvianolic acid B (X10) as victim; (Cmax × fu-p × R)/IC50
T1 sequence (Q9NPD5 1-702): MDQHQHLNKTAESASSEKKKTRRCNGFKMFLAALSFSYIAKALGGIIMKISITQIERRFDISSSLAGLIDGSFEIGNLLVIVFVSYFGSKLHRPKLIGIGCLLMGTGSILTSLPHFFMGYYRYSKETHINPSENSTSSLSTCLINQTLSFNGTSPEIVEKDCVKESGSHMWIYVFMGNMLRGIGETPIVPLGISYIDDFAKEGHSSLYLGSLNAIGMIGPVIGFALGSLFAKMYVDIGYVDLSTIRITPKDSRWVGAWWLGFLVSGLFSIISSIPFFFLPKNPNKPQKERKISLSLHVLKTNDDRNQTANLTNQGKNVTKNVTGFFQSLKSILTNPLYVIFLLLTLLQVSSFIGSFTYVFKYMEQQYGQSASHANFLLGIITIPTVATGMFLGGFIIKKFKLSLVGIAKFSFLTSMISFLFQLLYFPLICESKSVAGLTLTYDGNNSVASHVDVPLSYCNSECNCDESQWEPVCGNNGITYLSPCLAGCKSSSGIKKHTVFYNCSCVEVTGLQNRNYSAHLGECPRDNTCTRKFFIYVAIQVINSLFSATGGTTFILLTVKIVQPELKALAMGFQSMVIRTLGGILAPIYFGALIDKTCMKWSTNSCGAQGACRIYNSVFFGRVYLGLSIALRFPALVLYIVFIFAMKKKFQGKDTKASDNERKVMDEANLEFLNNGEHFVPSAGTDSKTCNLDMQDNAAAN

[2] = target: T1, OATP1B3; experiment: in vitro
[3] = system: ALDH; assay type: in vitro ADME; details: human, pooled human liver cytosol
[4] = target: T1, OATP1B3; details: IC50, OATP1B3 [X10], mean ± SD (n = 3)
[5] = target: T2, UGT2B15 (Homo sapiens, UniProt P54855); assay type: in vitro ADME; details: for Inhibition DDI index, UGT2B15: antibiotic as perpetrator, senkyunolide I (X5) as victim, (Cmax × fu-p × R)/IC50
T2 sequence (P54855 24-530): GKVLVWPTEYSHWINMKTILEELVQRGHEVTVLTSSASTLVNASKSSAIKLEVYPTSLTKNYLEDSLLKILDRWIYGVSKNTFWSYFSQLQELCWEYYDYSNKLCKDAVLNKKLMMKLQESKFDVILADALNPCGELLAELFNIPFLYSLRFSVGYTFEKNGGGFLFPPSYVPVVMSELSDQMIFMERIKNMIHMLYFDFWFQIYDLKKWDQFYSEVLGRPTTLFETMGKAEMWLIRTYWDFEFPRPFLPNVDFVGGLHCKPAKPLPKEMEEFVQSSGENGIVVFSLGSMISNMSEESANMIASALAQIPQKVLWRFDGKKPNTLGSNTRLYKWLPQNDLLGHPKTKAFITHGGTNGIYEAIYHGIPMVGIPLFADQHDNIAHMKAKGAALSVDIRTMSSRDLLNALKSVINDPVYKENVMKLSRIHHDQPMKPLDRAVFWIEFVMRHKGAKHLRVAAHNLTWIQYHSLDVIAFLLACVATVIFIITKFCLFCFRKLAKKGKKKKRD

[6] = target: T3, OAT1 (Homo sapiens, UniProt Q4U2R8); experiment: OAT1 inhibition by antibiotics, transfected HEK293 cells, tanshinol as substrate
T3 sequence (Q4U2R8 1-563): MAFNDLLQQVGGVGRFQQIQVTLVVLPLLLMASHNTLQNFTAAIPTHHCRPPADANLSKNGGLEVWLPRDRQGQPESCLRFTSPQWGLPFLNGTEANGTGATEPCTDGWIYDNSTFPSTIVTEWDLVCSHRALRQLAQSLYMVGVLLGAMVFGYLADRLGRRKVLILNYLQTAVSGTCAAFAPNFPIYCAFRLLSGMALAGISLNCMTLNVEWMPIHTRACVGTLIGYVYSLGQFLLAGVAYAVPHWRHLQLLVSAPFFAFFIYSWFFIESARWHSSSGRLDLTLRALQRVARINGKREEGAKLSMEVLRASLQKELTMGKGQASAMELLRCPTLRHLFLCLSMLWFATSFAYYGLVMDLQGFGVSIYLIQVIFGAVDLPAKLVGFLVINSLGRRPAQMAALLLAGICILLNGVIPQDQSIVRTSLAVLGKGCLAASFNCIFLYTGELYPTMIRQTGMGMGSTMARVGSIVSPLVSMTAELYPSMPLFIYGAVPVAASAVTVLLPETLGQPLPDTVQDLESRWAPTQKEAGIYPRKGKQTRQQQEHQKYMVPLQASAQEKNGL

[7] = target: T4, OAT2 (Homo sapiens, UniProt Q9Y694); experiment: OAT2 inhibition by antibiotics, transfected HEK293 cells, tanshinol as substrate; assay type: in vitro ADME
T4 sequence (Q9Y694 1-546 isoform Q9Y694-2): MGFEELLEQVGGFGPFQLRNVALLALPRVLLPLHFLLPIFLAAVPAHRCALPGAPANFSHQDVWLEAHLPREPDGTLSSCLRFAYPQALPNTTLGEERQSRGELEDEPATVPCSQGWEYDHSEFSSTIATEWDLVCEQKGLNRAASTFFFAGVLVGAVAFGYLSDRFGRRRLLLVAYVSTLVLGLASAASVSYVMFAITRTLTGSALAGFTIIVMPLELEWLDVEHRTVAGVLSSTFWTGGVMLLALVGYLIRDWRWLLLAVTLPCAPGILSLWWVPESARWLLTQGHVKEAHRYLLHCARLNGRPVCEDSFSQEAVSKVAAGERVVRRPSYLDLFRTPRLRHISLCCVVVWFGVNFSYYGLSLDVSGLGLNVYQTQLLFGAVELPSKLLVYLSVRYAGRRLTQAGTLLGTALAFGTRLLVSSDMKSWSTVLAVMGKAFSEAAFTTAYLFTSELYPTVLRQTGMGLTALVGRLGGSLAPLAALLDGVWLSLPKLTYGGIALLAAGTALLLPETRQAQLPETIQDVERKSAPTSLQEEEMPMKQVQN

[8] = antibiotic as perpetrator, tanshinol (X8) as victim, (Cmax × fu-p × R)/IC50

## CC1(C)S[C@@H]2[C@H](NC(=O)[C@H](N)c3ccccc3)C(=O)N2[C@H]1C(=O)O [A16, ampicillin]
[1]
  Inhibition DDI index, OATP1B3: 8.55
[2]
  inhibition at 5000 μmol/L: > 90%
[3]
  IC50: 2080 ± 283 µM
  inhibition at 5000 μmol/L: 56 to 88%
[4]
  IC50: 42 ± 18 µM

## CC[C@H](C)C[C@H](C)CCCCCCCCC(=O)N[C@H]1C[C@@H](O)[C@@H](NCCN)NC(=O)[C@@H]2[C@@H](O)CCN2C(=O)[C@H]([C@H](O)CCN)NC(=O)[C@H]([C@H](O)[C@@H](O)c2ccc(O)cc2)NC(=O)[C@@H]2C[C@@H](O)CN2C(=O)[C@H]([C@@H](C)O)NC1=O [A41, caspofungin]
[5]
  IC50: 39 ± 2 µM
[5]; human, cDNA-expressed UGT2B15
  inhibition at 100 μmol/L: 60 to 88%
[1]
  Inhibition DDI index, OATP1B3: 0.35
[2]
  inhibition at 100 μmol/L: > 90%
[6]
  IC50: 7 ± 2 µM
[6]; human
  inhibition at 100 μmol/L: 63 to 88%
[4]
  IC50: 1 µM

## C[C@@H]1[C@H](O)[C@@H](C)/C=C/C=C/C=C/C=C/C=C/C=C/C=C/[C@H](O[C@@H]2O[C@H](C)[C@@H](O)[C@H](N)[C@@H]2O)C[C@@H]2O[C@](O)(C[C@@H](O)C[C@@H](O)[C@H](O)CC[C@@H](O)C[C@@H](O)CC(=O)O[C@H]1C)C[C@H](O)[C@H]2C(=O)O [A42, amphotericin B]
[2]
  inhibition at 100 μmol/L: 64 to 88%
[3]
  IC50: 87 ± 9 µM
  inhibition at 100 μmol/L: 56 to 88%
[4]
  IC50: 1 µM

## CC[C@H]1OC(=O)[C@H](C)[C@@H](O[C@H]2C[C@@](C)(OC)[C@@H](O)[C@H](C)O2)[C@H](C)[C@@H](O[C@@H]2O[C@H](C)C[C@H](N(C)C)[C@H]2O)[C@](C)(O)C[C@@H](C)C(=O)[C@H](C)[C@@H](O)[C@]1(C)O [A34, erythromycin]
[1]
  Inhibition DDI index, OATP1B3: 0.35–1.04
[2]
  inhibition at 100 μmol/L: > 90%
[4]
  IC50: 3 ± 1 µM

## CCC(C)n1ncn(-c2ccc(N3CCN(c4ccc(OCC5COC(Cn6cncn6)(c6ccc(Cl)cc6Cl)O5)cc4)CC3)cc2)c1=O (stereo not shown) [A44, itraconazole]
[2]
  inhibition at 100 μmol/L: 64 to 88%
[4]
  IC50: 4 ± 1 µM

## COc1c(N2C[C@@H]3CCCN[C@@H]3C2)c(F)cc2c(=O)c(C(=O)O)cn(C3CC3)c12 [A33, moxifloxacin]
[2]
  inhibition at 100 μmol/L: 64 to 88%
[4]
  IC50: 17 ± 2 µM

## CO[C@H]1/C=C/O[C@@]2(C)Oc3c(C)c(O)c4c(O)c(c(/C=N/N5CCN(C)CC5)c(O)c4c3C2=O)NC(=O)/C(C)=C\C=C\[C@H](C)[C@H](O)[C@@H](C)[C@@H](O)[C@@H](C)[C@H](OC(C)=O)[C@@H]1C [A39, rifampin]
[2]
  inhibition at 100 μmol/L: > 90%
[4]
  IC50: 2 µM

## CCN1CCN(C(=O)N[C@@H](C(=O)N[C@@H]2C(=O)N3[C@@H]2SC(C)(C)[C@@H]3C(=O)O)c2ccccc2)C(=O)C1=O [A13, piperacillin]
[5]
  IC50: 797 ± 142 µM
  Inhibition DDI index, UGT2B15: 0.56
[5]; human, cDNA-expressed UGT2B15
  inhibition at 5000 μmol/L: 60 to 88%
[7]
  IC50: 1210 ± 434 µM
[7]; HEK293, read-out: Inhibition of OAT2
  inhibition at 5000 µM: 60 to 84%
[7]; [8]
  Inhibition DDI index, OAT2: 0.37
[6]
  IC50: 591 ± 154 µM
[6]; [8]
  Inhibition DDI index, OAT1: 0.75
[6]; human
  inhibition at 5000 μmol/L: 63 to 88%

## CCN1CCN(C(=O)N[C@@H](C(=O)N[C@@H]2C(=O)N3C(C(=O)O)=C(CSc4nnnn4C)CS[C@H]23)c2ccc(O)cc2)C(=O)C1=O [A8, cefoperazone]
[5]
  IC50: 971 ± 130 µM
  Inhibition DDI index, UGT2B15: 0.12
[5]; human, cDNA-expressed UGT2B15
  inhibition at 1000 μmol/L: 60 to 88%
[1]
  Inhibition DDI index, OATP1B3: 1.72–4.43
[2]
  inhibition at 1000 μmol/L: 64 to 88%
[4]
  IC50: 27 ± 9 µM
